The text below walks through data of patent publication US7795457B2, “Carbamate compounds” (Kosan Biosciences Incorporated, priority 2007, dated 2010).

Where two headings read alike, the source gives them in different places.

One assay concerns SiHa. The experiment in a line: Inhibition of tumor cell proliferation, SiHa. The assay is classed as cell-based, human. The note with it: read-out: Cancer Cell Line (IC50, nM) SiHa. On the procedure:
(§1) The biological activity of compounds of this invention was evaluated by measuring their inhibitory effect on the proliferation of various tumor cell lines. HCT-116 is a human colon cancer cell line. LNCap is a human prostate cancer cell line. SiHa is an HPV-16 positive human cervical cancer line.

For a further assay, the system named is HCT-116. The assay can be described thus: Inhibition of tumor cell proliferation, HCT-116. The assay is classed as cell-based, human. To be noted: read-out: Cancer Cell Line (IC50, nM) HCT-116. On the procedure:
as §1

The subject of another assay is CRM1 substrate RanBP1. The experiment in a line: Nuclear export block (RanBP1 localization, recovery after compound removal). The assay is classed as cell-based. To be noted: recovery of cytoplasmic RanBP1 localization after compound washout (typically 1 h exposure; 8, 24 or 48 h recovery). As to the method: The nuclear export blocking capability of compounds of this invention was evaluated as follows:
1-5×10^4 cells were seeded onto 12 mm glass coverslips or wells of a chamber slide (for example, Lab-Tek #177445). Cells were grown overnight at 37° C. to allow cells to attach to the surface. Media was removed and replaced with media containing the desired test compound and incubated the required time period (typically 1 h). For recovery experiments, cells were washed with PBS or media and incubated in media without test compound for the desired recovery periods (typically 8, 24, or 48 h). The media was removed and coverslips/wells were washed with PBS pH 7.4 for 1 minute. Coverslips or slides were fixed with 3.7% formaldehyde in PBS for 20 minutes at room temperature, washed three times in PBS, and stained for the CRM1 substrate RanBP1.
Coverslips or chamber slides were permeabilized and blocked in 10% donkey serum, 0.1% Triton X-100 in PBS for 30 minutes at room temperature. Primary antibodies were diluted in PBS and incubated for 1 hour at room temperature: goat-anti-RanBP1 (Santa Cruz Biotechnology, sc-1160; 1:50 dilution) and mouse-anti-tubulin (Sigma, T9026; 1:400). Cells were washed 3×5 minutes in PBS. Secondary antibodies donkey-anti-goat Cy3 (705-165-147, Jackson Immunoresearch) and donkey anti-mouse FITC (715-095-150, Jackson Immunoresearch) were diluted 1:200 in PBS and incubated for 1 hour at room temperature. Secondary antibody was removed and cells were stained with a nuclear dye such as DAPI (Sigma, D8417; 2.5 ug/mL in PBS) or Hoechst 33342 (Molecular Probes, H3570; 100 ng/mL in PBS) for 5 minutes at room temperature. Cells were washed 3×5 minutes in PBS and coverslips were mounted with FluorSave (EMD Biosciences, 80058-108). Nuclear (N) or cytoplasmic (C) localization of RanBP1 was examined using a 40× objective on a Zeiss Axiovert 200 inverted epiflourescence microscope. Nuclear localization (N>C) was confirmed after the initial drugging period.

For the next assay, the system named is LNCap. The assay can be described thus: Inhibition of tumor cell proliferation, LNCap. To be noted: read-out: Cancer Cell Line (IC50, nM) LNCap. The assay is classed as cell-based, human. On the procedure: as §1

Take `CC(C=CC1CC=CC(=O)O1)=CC(C)CC=CC(C)=CC(C)C(=O)C(C)C(O)C(C)CC(C)=CCOC(=O)NCc1ccc(F)cc1` (stereo not drawn) [Compound A-12]: the IC50 stood at 5.8 nM with SiHa (exposure time to compound 1 h) and 13.9 nM in the assay on HCT-116 (exposure time to compound 1 h).
As to leptolstatin [reference compound], the IC50 worked out at 1.6 nM in the assay on SiHa (exposure time to compound 1 h), 0.45 nM in the assay with SiHa (exposure time to compound 72 h), 5.5 nM with HCT-116 (exposure time to compound 1 h) and 0.49 nM in the assay on HCT-116 (exposure time to compound 72 h). Besides, the “Nuclear Export Block” value with CRM1 substrate RanBP1 is “Slow recovery”.
As to `COCCNC(=O)OCC=C(C)CC(C)C(O)C(C)C(=O)C(C)C=C(C)C=CCC(C)C=C(C)C=CC1CC=CC(=O)O1` (stereo not drawn) [Compound A-10], the IC50 in the assay on SiHa (exposure time to compound 1 h) amounted to 2.5 nM; in the assay on HCT-116 (exposure time to compound 1 h), 3.2 nM.
The corresponding values for `CC(C=CC1CC=CC(=O)O1)=CC(C)CC=CC(C)=CC(C)C(=O)C(C)C(OC(N)=O)C(C)CC(C)=CCOC(=O)N(Cc1ccccc1)C(N)=O` (stereo not drawn) [Compound A-18] are 22.5 nM and 20.3 nM.
For the molecule `CC(C=CC1CC=CC(=O)O1)=CC(C)CC=CC(C)=CC(C)C(=O)C(C)C(O)C(C)CC(C)=CCOC(=O)NCCN1CCOCC1` (stereo not drawn) [Compound A-7], the IC50 in the assay with SiHa (exposure time to compound 1 h) is 0.5 nM; in the assay on LNCap (exposure time to compound 1 h), 1.7 nM; in the assay with LNCap (exposure time to compound 72 h) it was 0.4 nM; in the assay with HCT-116 (exposure time to compound 1 h) it was 1.8 nM; in the assay on HCT-116 (exposure time to compound 72 h), 0.4 nM.
Take `CC(=C/[C@H](C)C/C=C/C(C)=C/[C@@H](C)C(=O)[C@@H](C)[C@H](O)[C@@H](C)C/C(C)=C/COC(=O)NCc1nccs1)/C=C/[C@H]1CC=CC(=O)O1` [Compound A-19]: the IC50 was 4.5 nM with SiHa (Homo sapiens, SiHa, 1 h) and 4.4 nM with HCT-116 (Homo sapiens, HCT-116, 1 h).
Turning to `CC(=C/[C@H](C)C/C=C/C(C)=C/[C@@H](C)C(=O)[C@@H](C)[C@H](O)[C@@H](C)C/C(C)=C/COC(=O)NCc1cccc(C(F)(F)F)n1)/C=C/[C@H]1CC=CC(=O)O1` [Compound A-23], the IC50 in the assay with HCT-116 (Homo sapiens, HCT-116, 1 h) turned out to be 21.5 nM.
As for `CC(C=CC1CC=CC(=O)O1)=CC(C)CC=CC(C)=CC(C)C(=O)C(C)C(O)C(C)CC(C)=CCOC(=O)NCCc1c(C)noc1C` (stereo not drawn) [Compound A-11], the IC50 is 3.1 nM with SiHa (exposure time to compound 1 h) and 4.2 nM in the assay with HCT-116 (exposure time to compound 1 h).
On to `CC(C=CC1CC=CC(=O)O1)=CC(C)CC=CC(C)=CC(C)C(=O)C(C)C(O)C(C)CC(C)=CCOC(=O)NCCN1CCCC1` (stereo not drawn) [Compound A-5], for which the half-inhibitory concentration (IC50) in the assay on SiHa (exposure time to compound 1 h) is 2.1 nM; in the assay on LNCap (exposure time to compound 1 h) it was 1.7 nM; in the assay on LNCap (exposure time to compound 72 h), 0.5 nM; in the assay on HCT-116 (exposure time to compound 1 h) it was 2.2 nM; in the assay with HCT-116 (exposure time to compound 72 h) it was 1.6 nM.
For `CC(C=CC1CC=CC(=O)O1)=CC(C)CC=CC(C)=CC(C)C(=O)C(C)C(OC(N)=O)C(C)CC(C)=CCOC(=O)NCc1nccs1` (stereo not drawn) [Compound A-20], the IC50 with SiHa (exposure time to compound 1 h) was 4.6 nM; in the assay with HCT-116 (exposure time to compound 1 h) it was 9.4 nM; in the assay on HCT-116 (exposure time to compound 72 h), 2.6 nM.
On to `CC(=C/[C@H](C)C/C=C/C(C)=C/[C@@H](C)C(=O)[C@@H](C)[C@H](O)[C@@H](C)C/C(C)=C/COC(=O)NCc1ccc(C(F)(F)F)nc1)/C=C/[C@H]1CC=CC(=O)O1` [Compound A-22], for which, in the assay with HCT-116 (Homo sapiens, HCT-116, 1 h), the IC50 was 18.1 nM.
For the molecule `CC(=C/[C@H](C)C/C=C/C(C)=C/[C@@H](C)C(=O)[C@@H](C)[C@H](OC(N)=O)[C@@H](C)C/C(C)=C/CO)/C=C/[C@H]1CC=CC(=O)O1` [IV], the IC50 in the assay with SiHa (Homo sapiens, SiHa, 1 h) worked out at 3.3 nM; in the assay on HCT-116 (Homo sapiens, HCT-116, 1 h), 8.1 nM.
The corresponding values for `CC(=C/[C@H](C)C/C=C/C(C)=C/[C@@H](C)C(=O)[C@@H](C)[C@H](O)[C@@H](C)C/C(C)=C/COC(=O)NCc1cc(C)on1)/C=C/[C@H]1CC=CC(=O)O1` [Compound A-15] are 3.6 nM and 2.8 nM.
As to `CC(=C/[C@H](C)C/C=C/C(C)=C/[C@@H](C)C(=O)[C@@H](C)[C@H](O)[C@@H](C)C/C(C)=C/COC(=O)NCc1ccc(C(F)(F)F)cn1)/C=C/[C@H]1CC=CC(=O)O1` [Compound A-21], the IC50 in the assay on SiHa (Homo sapiens, SiHa, 1 h) was found to be 11.5 nM; with HCT-116 (Homo sapiens, HCT-116, 1 h), 20 nM; in the assay on HCT-116 (Homo sapiens, HCT-116, 72 h), 3.1 nM.
In the case of `CC(=C/[C@H](C)C/C=C/C(C)=C/[C@@H](C)C(=O)[C@@H](C)[C@H](O)[C@@H](C)C/C(C)=C/COC(=O)NCc1ccccn1)/C=C/[C@H]1CC=CC(=O)O1` [Compound A-16], the IC50 came out at 3.8 nM with SiHa (Homo sapiens, SiHa, 1 h) and 2.9 nM with HCT-116 (Homo sapiens, HCT-116, 1 h).
As to `CC(C=CC1CC=CC(=O)O1)=CC(C)CC=CC(C)=CC(C)C(=O)C(C)C(O)C(C)CC(C)=CCOC(=O)NCCN1CCCC1=O` (stereo not drawn) [Compound A-13], the IC50 in the assay with SiHa (exposure time to compound 1 h) worked out at 3.4 nM; with HCT-116 (exposure time to compound 1 h), 2.9 nM.
For the molecule `CNC(=O)OC/C=C(\C)C[C@H](C)[C@@H](O)[C@H](C)C(=O)[C@H](C)/C=C(C)/C=C/C[C@@H](C)/C=C(C)\C=C\[C@H]1CC=CC(=O)O1` [Compound A-2], the IC50 in the assay on SiHa (Homo sapiens, SiHa, 1 h) was 1.2 nM; in the assay with SiHa (Homo sapiens, SiHa, 72 h), 0.4 nM; with LNCap (Homo sapiens, LNCaP, 1 h) it was 2.7 nM; in the assay with LNCap (Homo sapiens, LNCaP, 72 h), 0.4 nM; with HCT-116 (Homo sapiens, HCT-116, 1 h), 3.7 nM; in the assay with HCT-116 (Homo sapiens, HCT-116, 72 h), 0.7 nM. Besides, the “Nuclear Export Block” value in the assay with CRM1 substrate RanBP1 is on record as “Slow recovery”.
For the molecule `CCN(CC)CCNC(=O)OCC=C(C)CC(C)C(O)C(C)C(=O)C(C)C=C(C)C=CCC(C)C=C(C)C=CC1CC=CC(=O)O1` (stereo not drawn) [Compound A-8], the IC50 was 0.5 nM with SiHa (exposure time to compound 1 h); 1.3 nM in the assay on LNCap (exposure time to compound 1 h); 0.4 nM in the assay with LNCap (exposure time to compound 72 h); 2.6 nM in the assay with HCT-116 (exposure time to compound 1 h); 0.8 nM with HCT-116 (exposure time to compound 72 h).
`CC(C=CC1CC=CC(=O)O1)=CC(C)CC=CC(C)=CC(C)C(=O)C(C)C(O)C(C)CC(C)=CCOC(=O)NCCc1cccnc1` (stereo not drawn) [Compound A-6]: the IC50 in the assay with SiHa (exposure time to compound 1 h) amounted to 2.1 nM; in the assay on LNCap (exposure time to compound 1 h), 2.8 nM; with LNCap (exposure time to compound 72 h) it was 0.4 nM; with HCT-116 (exposure time to compound 1 h), 2.6 nM; with HCT-116 (exposure time to compound 72 h) it was 0.8 nM. For the same molecule, the “Nuclear Export Block” value with CRM1 substrate RanBP1 is “Slow recovery”.
Turning to `CC(C=CC1CC=CC(=O)O1)=CC(C)CC=CC(C)=CC(C)C(=O)C(C)C(O)C(C)CC(C)=CCOC(=O)NCCc1ccc(F)cc1` (stereo not drawn) [Compound A-9], the IC50 with SiHa (exposure time to compound 1 h) was determined as 8.2 nM; with HCT-116 (exposure time to compound 1 h), 13.8 nM.
For `CC(/C=C/C[C@@H](C)/C=C(C)/C=C/[C@@H]1OC(=O)C=C[C@@H]1C)=C\[C@@H](C)C(=O)[C@@H](C)[C@H](O)[C@@H](C)C/C(C)=C/C(=O)O` [Leptomycin A, leptomycin A, reference compound], the values for the IC50 in the assay with SiHa (exposure time to compound 72 h), with HCT-116 (exposure time to compound 1 h) and in the assay with HCT-116 (exposure time to compound 72 h) were 0.5 nM, 19 nM and 1.4 nM, respectively. Besides, in the assay with CRM1 substrate RanBP1, the “Nuclear Export Block” value is “Fast recovery”.
As for `CC(=C/[C@H](C)C/C=C/C(C)=C/[C@@H](C)C(=O)[C@@H](C)[C@H](O)[C@@H](C)C/C(C)=C/COC(=O)NC[C@@H](O)CO)/C=C/[C@H]1CC=CC(=O)O1` [Compound A-17], the IC50 with SiHa (Homo sapiens, SiHa, 1 h) worked out at 3.2 nM; in the assay on HCT-116 (Homo sapiens, HCT-116, 1 h), 3.6 nM.
In the case of `CC(C=CC1CC=CC(=O)O1)=CC(C)CC=CC(C)=CC(C)C(=O)C(C)C(O)C(C)CC(C)=CCOC(=O)NCCn1ccnc1` (stereo not drawn) [Compound A-14], the IC50 with SiHa (exposure time to compound 1 h) was 3.8 nM; in the assay with HCT-116 (exposure time to compound 1 h), 2.9 nM.

One may read the IC50 as the concentration at which inhibition is half-maximal.
